We go through 1 molecule from patent publication US11814372B2, “Agonists of EPHA and their uses” (CASE WESTERN RESERVE UNIVERSITY, priority 2017, dated 2023).

Entries after “also recorded” stand apart in the source; their conditions may differ.

For data set [1], the system named is DU145 and PC-3 cell xenografts. The note with it: previously shown, independent of α1-adrenoreceptor; cited from earlier work.
A further data set relates to A172-A2 glioma cells. Briefly: Haptotactic cell migration toward fibronectin (modified Boyden chamber). In kind it is cell-based. The conditions noted are these: 4 hours. An excerpt:
(§1) One of the well-established functions of Eph receptors is the ligand-dependent repulsive guidance of cell migration. As a ligand-mimicking agonist for EphA2, doxazosin is expected to activate EphA2 on tumor cells and repulse migrating tumor cells in vitro. To test this possibility, we first investigated the effects of doxazosin on integrin-mediated haptotactic cell migration toward fibronectin in a modified Boyden chamber cell migration assay. […] The inhibitory effects were observed when doxazosin was presented either in the bottom chamber, or in both top and bottom chambers in the Transwell assay system. […] Therefore, doxazosin can recapitulate a key function attributed to its native ligands, i.e., negative regulation of cell migration.

Data set [2] relates to MDA-MB-231 breast cancer cells. Described as above. The format is cell-based. The conditions noted are these: MDA-MB-231 cells, 4 hours.
Text: as §1

Another data set relates to PC3-DAB2IP KD cells. In words: In vivo metastasis assay, orthotopic PC3-DAB2IP KD prostate xenograft. As for the experimental part:
PC-3 cells (from ATCC) engineered to express both GFP and DAB2IP shRNA were characterized previously. Cells were suspended in serum free medium and 2,000 cells injected directly into the prostate glands of 7 week old NCr athymic nu/nu mice. Three days after injection, mice were divided into two groups, one receiving vehicle alone (5% DMSO/10% Cremophor/PBS) and another 50 mg/kg doxazosin via intraperitoneal injection daily for 10 days. Mice were sacrificed 14 days later and intact primary tumors were imaged under a UV light box with a Digital camera. Lungs were dissected into separate lobes and GFP-expressing metastases were imaged using an inverted fluorescent microscope (Leica). Metastases were enumerated in the two largest lung lobes and placed into size categories based upon their diameters, measured in number of cells (1-10 cells). Total metastatic burden was calculated in each mouse using the following equation: [burden=Σ (# of foci×focus diameter)].
Historically, studies of prostate cancer metastasis in the preclinical setting have been hampered by the lack of human cell lines that can produce significant metastasis in a reproducible manner. […] We took advantage of this newly established model system to test how doxazosin can affect metastasis of prostate cancer. To this end, PC3-DAB2IP KD cells were injected orthotopically into the prostate glands of nude mice. Three days later, recipient mice were subject to systemic treatment by daily i.p. injection of either vehicle control, or 50 mg/kg doxazosin for 10 days. Since these cells also expressed green fluorescent protein (GFP), freshly dissected primary tumors could be readily visualized in a GFP light box (FIG. 7A top panels), and distal metastases to lungs and lymph nodes could be observed and quantified under a fluorescent microscope (FIG. 7A lower panels).
Next, we determined whether doxazosin treatment might impact overall survival. Nude mice orthotopically implanted with the PC3-DAP2IP KD cells were treated for 10 days with either doxazosin, or vehicle control and monitored for survival.

A further data set relates to PC-3 cells. In words: Cell rounding analysis. The conditions noted are these: 50 µM, 30 or 60 min. The format is cell-based, human. An excerpt: As we first reported in 2000, EphA2 activation on PC-3 cells by ephrin-A1 induced rapid cell rounding, a phenomenon that is correlated with inhibition of integrin function.
The next data set concerns ERK1/2 and Akt. Briefly: Inhibition of ERK1/2 and Akt activation in A172-A2 glioma cells (immunoblot). In kind it is cell-based. The note with it: 50 μM and 100 μM, 90 minutes. A general note: A western blot detects proteins with antibodies after separation by electrophoresis.
For the next data set, the system named is ERK and Akt. In words: ERK and Akt inhibition in LK133A-Vec and LK133A-A2 liver epithelial cells (immunoblot). In kind it is cell-based, mice. As to the method: Cells were plated in 24-well dishes at a density of 100,000 cells/well and grown for 24 hours prior to stimulation with appropriate compounds and ephrins for the given amounts of time. Compounds were prepared in DMSO at 500 times the final concentrations and 0.2% DMSO was used as vehicle control. Following treatment, cells were lysed directly in SDS Gel Loading Buffer and immunoblotted as described previously. Immunoprecipitation and immunofluorescence staining was performed as described. For immunoprecipitation, 300,000 cells/well were plated in 6-well dishes and lysed in modified RIPA Buffer (20 mM Tris-HCl pH 7.4, 20 mM NaF, 150 mM NaCl, 10% glycerol, 0.1% SDS, 0.5% DCA, 2 mM EDTA, 1% Triton X-100) following treatment. Either […] of ephrin-A1-Fc, or […] of EphA2 mouse monoclonal antibody (Clone D7, Millipore) were used, and mouse IgG was used as a negative control for EphA2 IP.
To address this question, we utilized an immortalized liver epithelial cell line, LK133A, isolated from a hepatoma induced by DEN in EphA2 knockout mice. Retroviral vector was used to restore EphA2 expression in these cells (LK133A-A2), and cells transduced with an empty vector were used as control (LK133AVec).

For another data set, the target named is EphA2 (Homo sapiens, UniProt P29317). In words: EphA2 activation in A172-A2 glioma cells (immunoprecipitation, immunoblot). The format is cell-based. Set-up: expressed in transfected cells; host or cells: A172 (A172-A2).
The target of the next data set is T1, EphA4 (Homo sapiens, UniProt P54764).
T1 construct: expressed in transfected cells; host or cells: HEK 293
Briefly: Eph receptor activation in HEK 293 cells overexpressing EphA4. The format is cell-based. The note with it: HEK 293 cells overexpressing EphA4, 60 minutes.

The mark [3] stands for this setting: nude mice, 50 mg/kg i.p. daily for 10 days.

Chain of EphA2 (P29317 24-976): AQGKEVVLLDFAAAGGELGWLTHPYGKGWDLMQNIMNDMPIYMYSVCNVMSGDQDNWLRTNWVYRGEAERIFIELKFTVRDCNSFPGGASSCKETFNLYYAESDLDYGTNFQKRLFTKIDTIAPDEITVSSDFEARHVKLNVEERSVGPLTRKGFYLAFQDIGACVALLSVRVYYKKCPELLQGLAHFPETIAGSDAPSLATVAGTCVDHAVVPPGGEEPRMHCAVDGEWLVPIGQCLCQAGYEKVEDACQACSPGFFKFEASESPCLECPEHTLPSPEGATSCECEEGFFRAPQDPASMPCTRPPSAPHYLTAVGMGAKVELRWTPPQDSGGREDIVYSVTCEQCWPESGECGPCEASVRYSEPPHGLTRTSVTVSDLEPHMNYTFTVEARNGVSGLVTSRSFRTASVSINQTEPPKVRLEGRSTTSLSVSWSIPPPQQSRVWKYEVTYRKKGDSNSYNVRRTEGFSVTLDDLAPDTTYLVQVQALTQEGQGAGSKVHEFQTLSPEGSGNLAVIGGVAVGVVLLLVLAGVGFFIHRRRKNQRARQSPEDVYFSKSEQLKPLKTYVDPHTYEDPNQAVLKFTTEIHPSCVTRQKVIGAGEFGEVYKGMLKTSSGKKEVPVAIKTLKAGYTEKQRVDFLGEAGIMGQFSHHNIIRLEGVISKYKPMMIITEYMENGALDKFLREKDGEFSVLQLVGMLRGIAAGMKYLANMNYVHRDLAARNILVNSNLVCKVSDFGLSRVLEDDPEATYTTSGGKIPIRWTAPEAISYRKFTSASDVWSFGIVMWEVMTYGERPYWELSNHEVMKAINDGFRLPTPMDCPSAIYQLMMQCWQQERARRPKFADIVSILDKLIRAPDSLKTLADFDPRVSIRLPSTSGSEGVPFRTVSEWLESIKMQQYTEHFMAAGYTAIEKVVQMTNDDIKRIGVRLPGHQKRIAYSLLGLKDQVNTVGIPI
T1 sequence (P54764 20-986, species assumed): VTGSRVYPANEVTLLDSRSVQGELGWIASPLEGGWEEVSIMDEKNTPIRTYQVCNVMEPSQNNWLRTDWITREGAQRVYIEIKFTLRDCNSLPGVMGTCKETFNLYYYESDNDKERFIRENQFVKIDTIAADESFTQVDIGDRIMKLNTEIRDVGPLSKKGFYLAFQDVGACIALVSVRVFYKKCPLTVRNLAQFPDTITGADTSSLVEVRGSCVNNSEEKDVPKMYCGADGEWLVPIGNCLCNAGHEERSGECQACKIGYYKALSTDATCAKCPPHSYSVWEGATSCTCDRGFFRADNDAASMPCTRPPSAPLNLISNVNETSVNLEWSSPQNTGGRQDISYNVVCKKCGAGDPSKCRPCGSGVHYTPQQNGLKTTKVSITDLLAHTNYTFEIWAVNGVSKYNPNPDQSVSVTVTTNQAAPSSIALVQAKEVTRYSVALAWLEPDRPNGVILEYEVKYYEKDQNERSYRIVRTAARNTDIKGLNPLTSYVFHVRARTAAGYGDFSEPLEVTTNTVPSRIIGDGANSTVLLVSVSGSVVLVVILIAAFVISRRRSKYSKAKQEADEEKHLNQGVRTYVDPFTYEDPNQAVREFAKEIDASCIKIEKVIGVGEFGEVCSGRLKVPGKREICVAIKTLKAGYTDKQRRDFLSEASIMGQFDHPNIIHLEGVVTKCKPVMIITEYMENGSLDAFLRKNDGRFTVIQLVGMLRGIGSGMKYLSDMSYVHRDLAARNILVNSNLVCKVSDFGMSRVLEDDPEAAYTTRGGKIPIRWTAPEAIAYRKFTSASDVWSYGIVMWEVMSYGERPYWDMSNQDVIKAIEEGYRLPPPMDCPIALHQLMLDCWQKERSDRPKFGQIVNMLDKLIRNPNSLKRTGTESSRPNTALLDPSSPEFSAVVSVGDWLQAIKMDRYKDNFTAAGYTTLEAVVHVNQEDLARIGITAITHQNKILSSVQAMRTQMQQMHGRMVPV
Protocol for ERK1/2 and Akt: (§2) Cells were plated in 24-well dishes at a density of 100,000 cells/well and grown for 24 hours prior to stimulation with appropriate compounds and ephrins for the given amounts of time. Compounds were prepared in DMSO at 500 times the final concentrations and 0.2% DMSO was used as vehicle control. Following treatment, cells were lysed directly in SDS Gel Loading Buffer and immunoblotted as described previously. […] For immunoprecipitation, 300,000 cells/well were plated in 6-well dishes and lysed in modified RIPA Buffer (20 mM Tris-HCl pH 7.4, 20 mM NaF, 150 mM NaCl, 10% glycerol, 0.1% SDS, 0.5% DCA, 2 mM EDTA, 1% Triton X-100) following treatment. Either 10 ag of ephrin-A1-Fc, or 4 mg of EphA2 mouse monoclonal antibody (Clone D7, Millipore) were used, and mouse IgG was used as a negative control for EphA2 IP. […] We first tested this by utilizing the A172 glioma cells engineered to overexpress EphA2 receptor (A172-A2).
Protocol for EphA2: as §2
Protocol for EphA4: Cells were plated in 24-well dishes at a density of 100,000 cells/well and grown for 24 hours prior to stimulation with appropriate compounds and ephrins for the given amounts of time. Compounds were prepared in DMSO at 500 times the final concentrations and 0.2% DMSO was used as vehicle control. Following treatment, cells were lysed directly in SDS Gel Loading Buffer and immunoblotted as described previously. […] For this purpose, HEK 293 cell lines overexpressing EphA1, EphA2, EphA3, EphA4, and EphB3 kinases were utilized.

For the molecule `COc1cc2nc(N3CCN(C(=O)C4COc5ccccc5O4)CC3)nc(N)c2cc1OC` (stereo not drawn) [doxazosin], in [1], the “subcutaneous growth of DU145 and PC-3 cell xenografts” value is “moderately decrease subcutaneous growth”. Also, the “haptotactic cell migration toward fibronectin” value in the data set on A172-A2 glioma cells is reported as “dose-dependent inhibition of cell migration”. Further, in data set [2], the “haptotactic cell migration toward fibronectin” value is reported as “dose-dependent inhibition of cell migration”. Moreover, in the data set with PC3-DAB2IP KD cells (at 27 days after cell implantation, treated for 10 days, vehicle 30%), the overall survival is 70%. For the same molecule, in the data set on PC3-DAB2IP KD cells (setting [3]), the behavioral abnormalities result is listed as “nor were there any signs of behavioral abnormalities”, the “body weight compared with vehicle control” value is given as “no changes in body weight”, the “number of lung metastases compared to vehicle control” value is “significant reduction in the number of lung metastases” and the “reduction in primary tumor sizes” value is recorded as “the difference was not statistically significant”. Further, in the data set on PC3-DAB2IP KD cells (setting [3]), the “sizes of lung metastases compared to vehicle-treated mice” value is listed as “significantly smaller”; the “total metastatic burden (numbers and sizes of metastases)” value was “even more significantly reduced”; the “tumor cell dissemination to local lymph nodes” value is “reduced, but not to a significant extent”. Besides, the cell rounding entry in the data set on PC-3 cells is listed as “caused rounding of PC-3 cells”. Further, in the data set on ERK1/2 and Akt, the “inhibition of Akt and ERK1/2 activation” value is “significant inhibition of Akt and ERK1/2 activation”. For the same molecule, the “ERK and Akt inhibition after reintroduction of EphA2 expression” value in the data set on ERK and Akt (LK133A-A2 cells) is “restored ERK and Akt inhibition”. Also, the “inhibition of ERK and Akt activities in the absence of EphA2” value with ERK and Akt (LK133A-Vec cells (EphA2 knockout, empty vector)) is “neither doxazosin nor ephrin-A1-Fc was able to inhibit ERK and Akt activities; also recorded: notable increase in ERK and Akt activation”. Further, the “concentration at which EphA2 activation starts” value on EphA2 (A172-A2 glioma cells, 90 minutes) is recorded as “around 25 μM”. In addition, the “EphA2 level after treatment” value at EphA2 (A172 cells) is on record as “degradation of EphA2”. Further, the “EphA4 kinase activation, Eph receptor panel” value at EphA4 is “activated both EphA2 and EphA4 kinases”.
